Assay results reported in patent publication US20260115185A1, “QUINOLINE DERIVATIVES WHICH ACT AS KAPPA-OPIOID RECEPTOR ANTAGONISTS” (The Scripps Research Institute, priority 2023, published 2026).

Columns and labels:
[1] = molecular target: T1, kappa opioid receptor (KOR) (Homo sapiens, UniProt P41145); experiment: OPRKappa 1 Tango B-Arrestin Assay, antagonist mode (Tango OPRK1-bla U2OS cells, U50488 EC80 challenge); assay type: cell-based; conditions: for Selectivity (MOR/KOR): Kappa selectivity, MOR IC50 / KOR IC50; for IC50: antagonist mode, Tango OPRK1-bla U2OS cells, 6 nM U50488 challenge
T1 construct: host or cells: U2OS (Tango OPRK1-bla U2OS)
T1 sequence (P41145 whole entry): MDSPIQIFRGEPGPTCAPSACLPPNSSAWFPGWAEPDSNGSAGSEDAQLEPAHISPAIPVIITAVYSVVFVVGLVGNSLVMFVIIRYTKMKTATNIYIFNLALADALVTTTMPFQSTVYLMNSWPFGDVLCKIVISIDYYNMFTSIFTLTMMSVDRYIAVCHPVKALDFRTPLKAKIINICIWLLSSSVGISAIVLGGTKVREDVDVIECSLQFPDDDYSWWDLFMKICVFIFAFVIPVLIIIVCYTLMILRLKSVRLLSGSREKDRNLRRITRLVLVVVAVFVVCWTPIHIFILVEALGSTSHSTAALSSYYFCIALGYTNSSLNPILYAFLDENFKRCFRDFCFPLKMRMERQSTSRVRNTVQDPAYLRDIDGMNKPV
Text: OPRKappa 1 Tango B-Arrestin Assay Protocol-Antagonist Mode. […] The assay uses Tango OPRK1-bla U2OS cells which express OPRK1 linked to a GAL4-VP16 transcription factor via a TEV protease site. The cells also express a β-arrestin/TEV protease fusion protein and a β-lactamase (BLA) reporter gene under the control of a UAS response element. Stimulation of the OPRK1 receptor by agonist causes migration of the β-arrestin fusion protein to the GPCR, and through proteolysis liberates GAL4-VP16 from the receptor. The liberated VP16-GAL4 migrates to the nucleus, where it induces transcription of the BLA gene. BLA expression is monitored by measuring fluorescence resonance energy transfer (FRET) of a cleavable, fluorogenic, cell-permeable BLA substrate. As designed, test compounds that are OPRK1 antagonists inhibit agonist activation and migration of the fusion protein, thus preventing proteolysis of GAL4-VP16 and BLA transcription, leading to no increase in well FRET. Compounds were tested in quadruplicate using a 10-point, 1:3 dilution series starting at a nominal concentration of 10 micromolar.
The Tango OPRK1-U20S Dividing cell line was routinely cultured in 150 mm dishes at 37C, 5% CO2 and 95% relative humidity (RH).
On Day 1 of the assay, 16,000 cells in 10 μL of assay media (DMEM-Glutamax—with Sodium Pyruvate, 10% fetal bovine serum stripped with charcoal-dextran (CDS), 25 mM HEPES, 0.1 mM non-essential amino acids, antibiotic mix (penicillin streptomycin)) were seeded into each well of a 384 Greiner 788092 black low profile, clear bottom, low volume plate, and incubated 16-24 hours at 37° C., 5% CO2 and 95% (RH).
On Day 2, 50 nL of test compound in DMSO was added to the appropriate wells and plates were incubated for 30 min at 37° C. 5% CO2 and 95% (RH). Next was added 0.65 μL of commercially available U50488 OPRK1 agonist or DMSO in assay media: this EC80 Challenge consists of 0.6 μL of 111 nM U50488 to yield a final assay concentration of 6 nM). After incubation for 4 hours at 37° C., 5% CO2 and 95% (RH), 2.5 μL of LiveBLazer™FRET B/G (CCF4-AM) Mix (Soln.'s A,B,C,&D) was added to each well and incubated at room temperature in the dark for 2 hours. Well fluorescence was measured on Perkin Elmer's Envision using an Excitation filter 409 nm, Emission filters at 460 nm and […], bottom read.
(§1) The Percent Inhibition was calculated from the median ratio as follows:
• Tango™OPRK1-bla U20S Cells (Invitrogen K1576) • McCoy's 5A Medium, (Invitrogen 16600-082) • Dialyzed Fetal Bovine Serum, (Invitrogen 26400-036) • Non Essential Amino Acids 100× (Invitrogen part 11140-050) • HEPES (pH 7.3) 1M, (Invitrogen 15630-080) • Sodium Pyruvate 100× (Invitrogen 11360-070) • Penicillin Streptomycin, (Invitrogen 15640) • Trypsin 0.25% EDTA (Invitrogen 25200056) • DPBS without Calcium/Magnesium (Invitrogen 14190-136) • DMEM, High Glucose, GlutaMAX (Invitrogen 10569-010) • Fetal Bovine Serum, Charcoal Stripped (Invitrogen 12676-011) • DMSO Dry (Sigma D2650) • U50488 OPRK1 Agonist MW410.29 (Tocris 67198-19-0) • GNTI dihydrochloride OPRK1 Antagonist MW571.5 (Tocris 1282) • Nor-Binaltorphimine dihydrochloridc MW770.75 (Tocris 0347)
LiveBLAzere™-FRET/BG Loading Mix: (Invitrogen K1030 (5 mg)), composed of Solutions A, B, C, and D: • Solution A (6 μL): LiveBLAzer™-FRET/BG Substrate (CCF4-AM) • Solution B (60 μL) • Solution C (904 μL) • Solution C (must add 250 μl of 1N NaOH to 45 mL of Solution C prior to use) • Solution D (30 μL) [Probinicid] (Sigma P8161) make 200 mM stock in NaOH—H2O.

[2] = molecular target: T2, mu opioid receptor (MOR) (Homo sapiens, UniProt P35372); experiment: OPRMu1 Discover X β-arrestin Assay, antagonist mode (U2OS cells, DAMGO EC80 challenge); assay type: cell-based
T2 construct: host or cells: U2OS (Discover X OPRMu1-U2OS, PathHunter)
T2 sequence (P35372 whole entry): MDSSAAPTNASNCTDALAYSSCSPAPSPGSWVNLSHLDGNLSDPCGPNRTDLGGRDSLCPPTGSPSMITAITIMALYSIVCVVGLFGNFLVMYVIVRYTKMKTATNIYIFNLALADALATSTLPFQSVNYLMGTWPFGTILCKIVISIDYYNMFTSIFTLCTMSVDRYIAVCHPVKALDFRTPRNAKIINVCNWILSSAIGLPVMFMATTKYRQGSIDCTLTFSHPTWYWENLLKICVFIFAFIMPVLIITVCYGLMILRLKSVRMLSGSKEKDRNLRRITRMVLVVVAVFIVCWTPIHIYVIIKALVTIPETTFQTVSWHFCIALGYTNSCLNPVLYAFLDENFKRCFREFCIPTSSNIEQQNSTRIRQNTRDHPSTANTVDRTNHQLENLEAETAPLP
Text: OPRMu1 Discover X—β-arrestin Assay—Antagonist Mode. […] This assay evaluates the OPRMu1 activation in membrane recruitment of β-arrestin. In addition, the assay evaluates GPCR-β-arrestin proximity using low affinity fragment complementation of beta-galactosidase (beta-gal). The assay employs U20S cells, which express OPRMu1 fused to the complementary beta-gal fragment (enzyme acceptor). As designed, compounds that act as antagonists will prevent receptor activation resulting in reduced well luminescence. Compounds were tested in quadruplicate using a 10-point, 1:3 dilution series starting at a nominal concentration of 10 micromolar.
The Discover X OPRMu1-U20S cell line was cultured in 150 mm dishes at 37° C., 5% CO2 and 95% relative humidity (RH).
On Day 1 of the assay, 5000 cells in 20 μL of assay buffer (Discover X's Cell Plating Reagent 5) were seeded into each well of a 384 Corning 3570 standard white plate, and incubated 16-24 hours at 37° C., 5% CO2 and 95% RH.
On Day 2, 100 nL of test compound in DMSO were added to the appropriate wells and the plates were then incubated for 30 min at 37° C. 5% CO2 and 95% RH. Next, 2.2 μL of DAMGO OPRMu1 agonist (commercially available) or DMSO in assay media. (The EC80 Challenge consists of 1.8 μL of 3.7 μM DAMGO, 0.4 μL of Assay Buffer, with a final assay concentration of 303 nM). After incubation for 3 hours at 37° C. 5% CO2, and 95% RH, 10 μL of Path Hunter Detection Mix was added to each well, and the plate was then incubated at room temperature in the dark for 1 hour. Well luminescence was measured on Perkin Elmer's Envision.
as §1
• DMEM Medium, (Invitrogen 11965) • F12 Medium, (Invitrogen 11765) • Heat Inactivated Fetal Bovine Serum, (Invitrogen 10082147) • Non Essential Amino Acids 100× (Invitrogen 11140-050) • HEPES (pH 7.3) 1M, (Invitrogen 15630-080) • Sodium Pyruvate 100× (Invitrogen 11360-070) • Penicillin Streptomycin, (Invitrogen 15640) • Trypsin 0.25% EDTA (Invitrogen 25200056) • DPBS without Calcium/Magnesium (Invitrogen 14190-136) • DMSO Dry (Sigma D2650) • DAMGO OPRMu1 Agonist MW513.19 (Sigma E7384-5MG) • B-Funaltrexamine Hydrochloride OPRM1 Antagonist MW (SIGMA 0003-2MG) • PathHunter Cell Plating 5 Reagent (Discover X 93-0563R5A) • Corning 3750 Standard 384 well white plate with lid.
PathHunter Detection Mix (DiscoverX 93-0001): 1 part Galacton Star/5 parts Emerald II/19 parts PH Cell Assay Buffer.

Compound | Selectivity (MOR/KOR) [1] | IC50 [1] [nM] | IC50 [2] [nM]
CCc1cc(F)c2nc(N3CCN(CC4CCOCC4)[C@H](C)C3)c(-c3nc(C)no3)c(C)c2c1 [Compound 39, (R)-5-(6-ethyl-8-fluoro-4-methyl-2-(3-methyl-4-((tetrahydro-2H-pyran-4-yl)methyl)piperazin-1-yl)quinolin-3-yl)-3-methyl-1,2,4-oxadiazole] | ++ (between 10- and 100-fold selectivity) | ≥ 100 | > 1000
CCc1cc(F)c2nc(N3CCN(C(=O)[C@@H](C)N4CC[C@@H](F)C4)C[C@H]3C)c(-c3nc(C)no3)c(C)c2c1 [Compound 147] | +++ (between 100- to 1000-fold selective) | 1 to 10 | 100 to 1000
CCc1cc(-c2cc(C)nn2C)c2nc(N3CCC(N[C@@H]4CCOC4)CC3)c(-c3ccn(C)n3)c(C)c2c1 [Compound 95] | +++ (between 100- to 1000-fold selective) | < 1 | 10 to 100
CCc1cc(F)c2nc(N3CCN(CC4(F)CCOCC4)C[C@H]3C)c(-c3nc(C)no3)c(C)c2c1 [Compound 207, (R)-5-(6-ethyl-8-fluoro-2-(4-((4-fluorotetrahydro-2H-pyran-4-yl)methyl)-2-methylpiperazin-1-yl)-4-methylquinolin-3-yl)-3-methyl-1,2,4-oxadiazole] | ++++ (more than 1000-fold selectivity over MOR) | 1 to 10 | > 1000
CCc1cc(F)c2nc(N3CCN(C(=O)[C@H]4CCCCN4C)C[C@H]3C)c(-c3nc(C)no3)c(C)c2c1 [Compound 189] | ++++ (more than 1000-fold selectivity over MOR) | 1 to 10 | > 1000
CCc1cc(F)c2nc(N3CCN(C[C@@H]4CCOC4)C[C@H]3C)c(-c3ccn(C)n3)c(C)c2c1 [Compound 57] | ++ (between 10- and 100-fold selectivity) | ≥ 100 | > 1000
CCc1cc(F)c2nc(N3CCN(C(=O)[C@@H]4CCCN4C)C[C@H]3C)c(-c3nc(C)no3)c(C)c2c1 [Compound 46] | +++ (between 100- to 1000-fold selective) | 10 to 100 | > 1000
CCc1cc(F)c2nc(N3CCN(C(=O)CN(CC)CC)C[C@H]3C)c(-c3cc(C)no3)c(C)c2c1 [Compound 166] | +++ (between 100- to 1000-fold selective) | 1 to 10 | > 1000
CCc1cc(F)c2nc(N3CCN(C(=O)[C@@H]4CCCN4C)C[C@H]3C)c(-c3ccn(C)n3)c(C)c2c1 [Compound 175] | +++ (between 100- to 1000-fold selective) | 10 to 100 | > 1000
CCc1cc(F)c2nc(N3CCN(C(=O)[C@H](C)N(CC)CC)C[C@H]3C)c(-c3nc(C)no3)c(C)c2c1 [Compound 158] | ++++ (more than 1000-fold selectivity over MOR) | 1 to 10 | > 1000
CCc1cc(F)c2nc(N3CCN(C(=O)[C@H](C)N(CC)CC)C[C@H]3C)c(-c3ccn(C)n3)c(C)c2c1 [Compound 174] | +++ (between 100- to 1000-fold selective) | 10 to 100 | > 1000
CCc1cc(F)c2nc(N3CC[C@@H](N[C@@H]4CCOC4)C[C@@H]3C)c(-c3cc(C)no3)c(C)c2c1 [Compound 138] | +++ (between 100- to 1000-fold selective) | 10 to 100 | > 1000
CCc1cc(-c2ccn(C)n2)c2nc(N3CCC(N[C@H]4CCOC4)CC3)c(-c3ccn(C)n3)c(C)c2c1 [Compound 99] | ++++ (more than 1000-fold selectivity over MOR) | < 1 | > 1000
CCc1cc(F)c2nc(N3CC[C@@H](N[C@@H]4CCOC4)C[C@@H]3C)c(-c3ccn(C)n3)c(C)c2c1 [Compound 116] | ++++ (more than 1000-fold selectivity over MOR) | 1 to 10 | > 1000
CCc1cc(F)c2nc(N3CCC(OCCN4CCCC4)CC3)c(-c3nc(C)no3)c(C)c2c1 [Compound 187] | +++ (between 100- to 1000-fold selective) | 10 to 100 | > 1000
CCc1cc(F)c2nc(N3CCN(C(=O)CCN4CCCC4)C[C@H]3C)c(-c3nc(C)no3)c(C)c2c1 [Compound 190] | ++ (between 10- and 100-fold selectivity) | 1 to 10 | 100 to 1000
CCc1cc(C#N)c2nc(N3CCC(NCC4(F)CCOCC4)CC3)c(-c3ccn(C)n3)c(C)c2c1 [Compound 80] | ++ (between 10- and 100-fold selectivity) | 1 to 10 | 100 to 1000
CCc1cc(F)c2nc(N3CC[C@H](N[C@@H]4CCOC4)C[C@H]3C)c(-c3ccn(C)n3)c(C)c2c1 [Compound 118] | ++++ (more than 1000-fold selectivity over MOR) | < 1 | 100 to 1000
CCc1cc(F)c2nc(N3CC[C@H]4[C@H](CCN4[C@@H]4CCCOC4)C3)c(-c3ccn(C)n3)c(C)c2c1 [Compound 126] | ++ (between 10- and 100-fold selectivity) | 10 to 100 | > 1000
CCc1cc(F)c2nc(N3CC[C@H]4[C@H](CCN4[C@@H]4CCOC4)C3)c(-c3ccn(C)n3)c(C)c2c1 [Compound 125] | ++++ (more than 1000-fold selectivity over MOR) | 1 to 10 | > 1000
